Key:
human CYP11B2 = human CYP11B2 (Homo sapiens (Human), UniProt P19099); test: G-402 cellular enzyme assay, human CYP11B2 (aldosterone release, HTRF); type: cell-based; conditions: G-402 cells expressing human CYP11B2; 1 μM Deoxycorticosterone
Text: (§1) Herein we identified the use of the G-402 cell line as a host cell to ectopically express (transiently or stably) enzymes of the CYP11 family. Specifically we developed stable G-402 cells expressing ectopically human CYP11B1, human CYP11B2, human CYP11A1, cynmolgus CYP11B1 or cynomolgus CYP11B2 enzyme activity. Importantly the identified cell line G-402 expresses co-factors (adrenodoxin and adrenodoxin reductase) important for the activity of the CYP11 family and no relevant enzyme activity of the CYP11 family (in comparison to H295R cells) was detected in these cells. Therefore the G-402 cell line is uniquely suited as a host cell for the ectopic expression of enzymes from the CYP11 family.
(§2) G-402 cells can be obtained from ATCC (CRL-1440) and were originally derived from a renal leiomyoblastoma.
(§3) The expression plasmids contains the ORF for either human/cyno CYP11B1 or CYP11B2 under the control of a suitable promoter (CMV-promoter) and a suitable resistance marker (neomycin). Using standard techniques the expression plasmid is transfected into G-402 cells and these cells are then selected for expressing the given resistance markers. Individual cell-clones are then selected and assessed for displaying the desired enzymatic activity using 11-Deoxycorticosterone (Cyp11B2) or 11-Deoxycortisol (Cyp11B1) as a substrate.
(§4) G-402 cells expressing CYP11 constructs were established as described above and maintained in McCoy's 5a Medium Modified, ATCC Catalog No. 30-2007 containing 10% FCS and 400 μg/ml G418 (Geneticin) at 37° C. under an atmosphere of 5% CO2/95% air. Cellular enzyme assays were performed in DMEM/F12 medium containing 2.5% charcoal treated FCS and appropriate concentration of substrate (0.3-10 uM 11-Deoxycorticosterone, 11-Deoxycortisol or Corticosterone). For assaying enzymatic activity, cells were plated onto 96 well plates and incubated for 16 h. An aliquot of the supernatant is then transferred and analyzed for the concentration of the expected product (Aldosterone for CYP11B2; Cortisol for CYP11B1). The concentrations of these steroids can be determined using HTRF assays from CisBio analyzing either Aldosterone or Cortisol.
(§5) Inhibition of the release of produced steroids can be used as a measure of the respective enzyme inhibition by test compounds added during the cellular enzyme assay. The dose dependent inhibition of enzymatic activity by a compound is calculated by means of plotting added inhibitor concentrations (x-axes) vs. measured steroid/product level (y-axes). The inhibition is then calculated by fitting the following 4-parameter sigmoidal function (Morgan-Mercer-Flodin (MMF) model) to the raw data points using the least squares method:
(§6) [formula] wherein, A is the maximum y value, B is the EC50 factor determined using XLFit, C is the minimum y value and D is the slope value.
(§7) EC50 values for compounds claimed herein were tested with the G402-based assay system described. Cyp11B2 enzyme activity was tested in presence of 1 μM Deoxycorticosterone and variable amounts of inhibitors; Cyp11B1 enzyme activity was tested in presence of 1 μM Deoxycortisol and variable amounts of inhibitors.

human CYP11B1 = human CYP11B1 (Homo sapiens (Human), UniProt P15538); test: G-402 cellular enzyme assay, human CYP11B1 (cortisol release, HTRF); type: cell-based; conditions: G-402 cells expressing human CYP11B1; 1 μM Deoxycortisol
human CYP11B1, sequence (P15538 25-503): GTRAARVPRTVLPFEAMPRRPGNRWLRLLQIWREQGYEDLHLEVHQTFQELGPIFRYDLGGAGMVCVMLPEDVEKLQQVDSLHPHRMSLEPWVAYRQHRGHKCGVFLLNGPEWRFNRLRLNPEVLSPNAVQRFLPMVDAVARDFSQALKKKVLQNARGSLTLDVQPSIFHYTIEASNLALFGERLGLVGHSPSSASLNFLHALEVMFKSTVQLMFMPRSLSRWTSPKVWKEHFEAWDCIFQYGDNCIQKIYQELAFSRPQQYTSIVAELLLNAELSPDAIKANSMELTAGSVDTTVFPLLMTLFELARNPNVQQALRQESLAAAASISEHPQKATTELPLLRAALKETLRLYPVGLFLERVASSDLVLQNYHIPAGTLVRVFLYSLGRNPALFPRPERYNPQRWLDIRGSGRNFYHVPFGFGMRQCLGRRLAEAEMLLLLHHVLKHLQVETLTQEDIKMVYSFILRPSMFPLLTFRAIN
Text: as §1, §2, §3, §4, §5, §6, §7

human CYP11B2, sequence (P19099 25-503): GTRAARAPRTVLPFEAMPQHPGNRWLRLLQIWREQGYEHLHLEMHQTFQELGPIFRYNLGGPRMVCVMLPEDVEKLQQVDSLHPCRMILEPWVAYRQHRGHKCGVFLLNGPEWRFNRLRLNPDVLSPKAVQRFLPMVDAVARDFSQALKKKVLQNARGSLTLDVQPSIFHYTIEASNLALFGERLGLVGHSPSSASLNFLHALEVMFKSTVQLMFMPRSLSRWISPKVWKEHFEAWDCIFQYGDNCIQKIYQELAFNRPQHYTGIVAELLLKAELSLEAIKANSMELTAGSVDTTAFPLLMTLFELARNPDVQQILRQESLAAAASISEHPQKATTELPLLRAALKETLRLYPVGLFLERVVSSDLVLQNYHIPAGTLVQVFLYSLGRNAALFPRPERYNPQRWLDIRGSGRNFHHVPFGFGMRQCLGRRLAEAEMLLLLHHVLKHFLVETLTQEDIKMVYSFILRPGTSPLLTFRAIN

| SMILES | EC50 (human CYP11B2) [nM] | EC50 (human CYP11B1) [nM] |
| --- | --- | --- |
| CCOC(=O)c1ccccc1-c1[nH]ncc1Oc1ccc(C#N)cc1 [Example 39, Ethyl 2-[4-(4-cyanophenoxy)-1H-pyrazol-3-yl]benzoate] | 34.2 | 1160 |
| N#Cc1ccc(Oc2cn[nH]c2-c2cccc(OCc3ccnc(Cl)c3)c2F)cc1 [Example 86, 4-[[3-[3-[(2-Chloropyridin-4-yl)methoxy]-2-fluorophenyl]-1H-pyrazol-4-yl]oxy]benzonitrile] | 4.3 | 28 |
| N#Cc1ccc(Oc2cn[nH]c2-c2cccc(CO)c2)cc1 [Example 49, 4-[[3-[3-(Hydroxymethyl)phenyl]-1H-pyrazol-4-yl]oxy]benzonitrile] | 13.2 | 85 |
| N#Cc1ccc(Oc2cn[nH]c2C2CCCN(C(=O)c3cccnc3)C2)c(F)c1 (racemic) [Example 91, (rac)-3-Fluoro-4-[[3-[1-(pyridine-3-carbonyl)piperidin-3-yl]-1H-pyrazol-4-yl]oxy]benzonitrile] | 1260 | 9010 |
| N#Cc1ccc(Oc2cn[nH]c2C2CCCN(C(=O)c3ccccn3)C2)cc1 (racemic) [Example 65, (rac)-4-[[3-[1-(Pyridine-2-carbonyl)piperidin-3-yl]-1H-pyrazol-4-yl]oxy]benzonitrile] | 1410 | 5910 |
| Cn1nncc1COc1ccccc1-c1[nH]ncc1Oc1ccc(C#N)cc1 [Example 81, 4-[[3-[2-[(3-Methyltriazol-4-yl)methoxy]phenyl]-1H-pyrazol-4-yl]oxy]benzonitrile] | 2.5 | 171 |
| Clc1ccc(Oc2cn[nH]c2-c2ccccc2Cl)cn1 [Example 19, 2-Chloro-5-[[5-(2-chlorophenyl)-1H-pyrazol-4-yl]oxy]pyridine] | 113 | 387 |
| Fc1ccc(-c2[nH]ncc2Oc2ccc(Cl)cc2)c(F)c1 [Example 15, 4-(4-Chlorophenoxy)-5-(2,4-difluorophenyl)-1H-pyrazole] | 18.6 | 159 |
| COC(=O)c1cccc(-c2[nH]ncc2Oc2ccc(C#N)cc2)c1 [Example 33, Methyl 3-[4-(4-cyanophenoxy)-1H-pyrazol-3-yl]benzoate] | 17.5 | 31.3 |
| Cn1nncc1COc1cccc(-c2[nH]ncc2Oc2ccc(C#N)cc2)c1 [Example 53, 4-[[3-[3-[(3-Methyltriazol-4-yl)methoxy]phenyl]-1H-pyrazol-4-yl]oxy]benzonitrile] | 23.8 | 198 |
| COc1ccc(-c2[nH]ncc2Oc2ccc(Cl)cc2)c(OC)c1 [Example 5, 4-(4-Chlorophenoxy)-3-(2,4-dimethoxyphenyl)-1H-pyrazole] | 2.5 | 11.6 |
| N#Cc1ccc(Oc2cn[nH]c2-c2ccccc2OCc2ccccc2)cc1 [Example 41, 4-[[5-(2-Phenylmethoxyphenyl)-1H-pyrazol-4-yl]oxy]benzonitrile] | 0.1 | 0.5 |
| CS(=O)(=O)c1ccc(-c2[nH]ncc2Oc2ccc(Cl)cc2)c(Cl)c1 [Example 42, 5-(2-Chloro-4-methylsulfonylphenyl)-4-(4-chlorophenoxy)-1H-pyrazole] | 29.8 | 345 |
| Cc1ccc(Oc2cn[nH]c2-c2ccccc2Cl)cn1 [Example 20, 5-[[5-(2-Chlorophenyl)-1H-pyrazol-4-yl]oxy]-2-methylpyridine] | 311 | 3390 |
| CC(=O)N1CCN(C(=O)c2cccc(-c3[nH]ncc3Oc3ccc(C#N)cc3)c2)CC1 [Example 44, 4-[[3-[3-(4-Acetylpiperazine-1-carbonyl)phenyl]-1H-pyrazol-4-yl]oxy]benzonitrile] | 313 | > 30000 |
| CS(=O)(=O)c1ccc(-c2[nH]ncc2Oc2ccc(C(F)(F)F)cc2)cc1 [Example 16, 5-(4-Methylsulfonylphenyl)-4-[4-(trifluoromethyl)phenoxy]-1H-pyrazole] | 84.5 | 1970 |
| COc1ccccc1CCc1[nH]ncc1Oc1ccc(C#N)cc1 [Example 60, 4-[[3-[2-(2-Methoxyphenyl)ethyl]-1H-pyrazol-4-yl]oxy]benzonitrile] | 54 | 1000 |

| SMILES | EC50 (human CYP11B2) [nM] | EC50 (human CYP11B1) [nM] |
| --- | --- | --- |
| Fc1cc(C(F)(F)F)ccc1-c1[nH]ncc1Oc1ccc(Cl)cc1 [Example 13, 4-(4-Chlorophenoxy)-5-[2-fluoro-4-(trifluoromethyl)phenyl]-1H-pyrazole] | 408 | 2470 |
| CS(=O)(=O)c1ccc(-c2[nH]ncc2Oc2ccc(C#N)cc2)cc1 [Example 18, 4-[[5-(4-Methylsulfonylphenyl)-1H-pyrazol-4-yl]oxy]benzonitrile] | 23.9 | 462 |
| N#Cc1ccc(Oc2cn[nH]c2-c2cccc(OCc3ccccc3)c2)cc1 [Example 36, 4-[[5-(3-Phenylmethoxyphenyl)-1H-pyrazol-4-yl]oxy]benzonitrile] | 16.8 | 52.9 |
| N#Cc1ccc(Oc2cn[nH]c2-c2cccc(OCc3ccncc3)c2F)cc1 [Example 85, 4-[[3-[2-Fluoro-3-(pyridin-4-ylmethoxy)phenyl]-1H-pyrazol-4-yl]oxy]benzonitrile] | 0.3 | 5.2 |
| Cc1ncc(-c2[nH]ncc2Oc2ccc(C#N)cc2)s1 [Example 66, 4-[[3-(2-Methyl-1,3-thiazol-5-yl)-1H-pyrazol-4-yl]oxy]benzonitrile] | 68.5 | 2060 |
| Cn1nncc1COc1c(Cl)cccc1-c1[nH]ncc1Oc1ccc(C#N)cc1 [Example 90, 4-[[3-[3-Chloro-2-[(3-methyltriazol-4-yl)methoxy]phenyl]-1H-pyrazol-4-yl]oxy]benzonitrile] | 159 | 1580 |
| Cn1cc(-c2[nH]ncc2Oc2ccc(C#N)cc2)cn1 [Example 67, 4-[[3-(1-Methylpyrazol-4-yl)-1H-pyrazol-4-yl]oxy]benzonitrile] | 251 | 3270 |
| N#Cc1ccc(Oc2cn[nH]c2-c2cccc(CN3CC(F)(CO)C3)c2)cc1 [Example 74, 4-[[3-[3-[[3-Fluoro-3-(hydroxymethyl)azetidin-1-yl]methyl]phenyl]-1H-pyrazol-4-yl]oxy]benzonitrile] | 19.7 | 36.2 |
| Cn1cc(C(=O)N2CCN(Cc3[nH]ncc3Oc3ccc(C#N)cc3)CC2)cn1 [Example 88, 4-[[5-[[4-(1-Methylpyrazole-4-carbonyl)piperazin-1-yl]methyl]-1H-pyrazol-4-yl]oxy]benzonitrile] | 147 | 25900 |
| N#Cc1ccc(Oc2cn[nH]c2-c2cccc(F)c2F)cc1 [Example 29, 4-[[5-(2,3-Difluorophenyl)-1H-pyrazol-4-yl]oxy]benzonitrile] | 7.5 | 161 |
| N#Cc1ccc(Oc2cn[nH]c2-c2cccc(CN3CCOCC3)c2)cc1 [Example 75, 4-[[3-[3-(Morpholin-4-ylmethyl)phenyl]-1H-pyrazol-4-yl]oxy]benzonitrile] | 8.5 | 139 |
| N#Cc1ccc(Oc2cn[nH]c2-c2cccc(COc3cccc(F)n3)c2)cc1 [Example 69, 4-[[3-[3-[(6-Fluoropyridin-2-yl)oxymethyl]phenyl]-1H-pyrazol-4-yl]oxy]benzonitrile] | 16.9 | 47.7 |
| N#Cc1ccc(Oc2cn[nH]c2-c2cccc(C[n+]3cccc([O-])c3)c2)cc1 [Example 71, 1-[[3-[4-(4-Cyanophenoxy)-1H-pyrazol-3-yl]phenyl]methyl]pyridin-1-ium-3-olate] | 656 | 5880 |
| N#Cc1ccc(Oc2cn[nH]c2-c2cccc(OCc3ccccn3)c2)cc1 [Example 50, 4-[[3-[3-(Pyridin-2-ylmethoxy)phenyl]-1H-pyrazol-4-yl]oxy]benzonitrile] | 10.4 | 51.6 |
| N#Cc1ccc(Oc2cn[nH]c2-c2ccccc2O)cc1 [Example 78, 4-[[3-(2-Hydroxyphenyl)-1H-pyrazol-4-yl]oxy]benzonitrile] | 0.3 | 10.7 |
| N#Cc1ccc(Oc2cn[nH]c2-c2cccc(COc3cccc(Cl)n3)c2)cc1 [Example 73, 4-[[3-[3-[(6-Chloropyridin-2-yl)oxymethyl]phenyl]-1H-pyrazol-4-yl]oxy]benzonitrile] | 104 | 411 |

— patent US9790217B2, “Pyridinyloxy- and phenyloxy-pyrazolyl compounds” (Hoffmann-La Roche Inc., priority 2014, dated 2017)
